Results on one molecule are retold here after ChEMBL document CHEMBL4261660, “Synthesis and biological evaluation of a trisaccharide repeating unit derivative of Streptococcus pneumoniae 19A capsular polysaccharide” (Bioorg Med Chem, 2018).

Molecules are shown by their SMILES.

Experiment [1] in a line: Inhibition of anti-19F rabbit polyclonal antibody binding to Streptococcus pneumoniae 19F capsular polysaccharide coated on to plates after overnight incubation ar 4 to 8 degC by competitive ELISA. On the set-up: species or system Oryctolagus cuniculus.
For experiment [2], the species on record is Oryctolagus cuniculus. Briefly: Inhibition of binding of anti-19A rabbit polyclonal antibody to Streptococcus pneumoniae 19A capsular polysaccharide coated on to plates at 1 mg/ml after overnight incubation at 4 to 8 degC by competitive ELISA.
Experiment [3] is filed under the species Oryctolagus cuniculus. Kind of experiment: Inhibition of anti-19F rabbit polyclonal antibody binding to Streptococcus pneumoniae 19F capsular polysaccharide coated on to plates at 1 mg/ml after overnight incubation ar 4 to 8 degC by competitive ELISA.
Experiment [4] can be described thus: Inhibition of binding of anti-19A rabbit polyclonal antibody to Streptococcus pneumoniae 19A capsular polysaccharide coated on to plates after overnight incubation at 4 to 8 degC by competitive ELISA. Set-up: species or system Oryctolagus cuniculus.

Take `CC(=O)N[C@@H]1[C@H](O[C@H]2[C@H](O)[C@@H](O)[C@@H](O[C@@H]3[C@@H](O)[C@H](C)O[C@@H](OCCCN)[C@@H]3O)O[C@@H]2CO)O[C@H](CO)[C@@H](O)[C@@H]1O.Cl`: the EC50 in experiment [1] was found to be 2.7 ×10⁻² mg/ml; in experiment [4], 1.3 ×10⁻³ mg/ml. For the same molecule, the figures for the inhibition in the experiment filed under Oryctolagus cuniculus [2] and in the experiment filed under Oryctolagus cuniculus [3] were 41% and 32%, respectively.
